Bridge positions count the residues as written; N and C are the ends. Square brackets hold non-standard residues; d marks the D form. Peptide text beside a SMILES is read from it. * marks the point of attachment. Hydrocinnamoyl = O=C(CCc1ccccc1)*; dCha = N[C@H](CC1CCCCC1)C(=O)O; Orn = NCCC[C@H](N)C(=O)O
System: neutropenia caused by i.v. LPS
Test: LPS-induced neutropenia (endotoxaemia model)
Format: in vivo, rat
Conditions: topical in 50% DMSO/50% H2O, 60 min before LPS 1 mg/kg i.v.
Procedure: The in vivo pharmacological properties of cyclic antagonists were examined following topical dermal administration. A model of endotoxaemia was used, in which 1 mg/kg Escherichia coli […] (LPS; serotype 55:B5, Sigma, USA, stored at 100 mg ml^−1 in dH2O, 4° C.), was injected i.v into a rat, resulting in acute changes in circulating PMN levels and blood pressure. These parameters were measured in the presence and absence of C5aR antagonists (1 mg/kg i.v or 50 mg/kg/rat topically). […] Female Wistar rats weighing between 200-250 g were used for in vivo testing of all C5a receptor antagonists. Rats were anaesthetized using the procedure described above, and transferred on to a heating pad to ensure that body temperature was maintained throughout the experiment. A catheter was inserted in the femoral vein, secured with a suture and flushed with 100 μL of heparinised saline. […] All agents infused i.v were injected over a 2 min period, and were followed with a subsequent injection of 100 μL of saline to ensure complete delivery of the drug. Whole blood samples (0.1 mL) were collected from the tail vein at the time of drug and LPS or C5a administration. Samples were collected at −15, 0, 5, 10, 15, 30, 60, 90, 120 and 150 min relative to the injection of LPS (zero time), and placed in tubes containing heparin (500 Units/mL). To isolate PMNs, 100 μL of blood was layered on to 200 μL of Histopaque 1077 (Sigma U.S.A.) solution and centrifuged at 400×g for 30 min min at room temperature (25° C.). The supernatant layer of platelet-rich plasma, the monocyte and lymphocyte interface and the separation layer of Histopaque were removed and discarded, leaving the PMN and red blood-cell rich layer. […] The number of PMNs was counted on a haemocytometer. The number of cells at each time point was calculated as a percentage of the total number of cells at time zero, prior to complement challenge or LPS. […] Circulating PMN levels were monitored for 150 min following LPS injection, and the percentage change in PMN levels from zero time, when LPS was injected, was calculated.

CC(=O)N[C@@H](Cc1ccccc1)C(=O)N[C@H]1CCCNC(=O)[C@H](CCCNC(N)=O)NC(=O)[C@H](Cc2c[nH]c3ccccc23)NC(=O)[C@@H](CC2CCCCC2)NC(=O)[C@@H]2CCCN2C1=O [Compound 45, AcF[OPdChaW-Cit]]
neutropenia response to i.v. LPS: inhibited the neutropenia response

N=C(N)NCCC[C@@H]1NC(=O)[C@H](Cc2c[nH]c3ccccc23)NC(=O)[C@@H](CC2CCCCC2)NC(=O)[C@@H]2CCCN2C(=O)[C@@H](NC(=O)CCc2ccccc2)CCCNC1=O [Compound 17, HC[OP-dCha-WR]] (Hydrocinnamoyl-[Orn]P[dCha]WR; lactam 1-C)
neutropenia response to i.v. LPS: inhibited the neutropenia response

— patent US7579432B2, “Cyclic peptides as G-protein-coupled receptor antagonists” (Promics Pty Limited, priority 2001, dated 2009)
